How the values were obtained:
human AT1 receptor = target: T1, human AT1 receptor (Homo sapiens, UniProt P30556); test: AT1 receptor antagonistic activity: [125I]-angiotensin II binding assay on human AT1 receptor-expressing CHO-K1 cellular membrane fraction; conditions: 22.5 pM [125I]-angiotensin II, 1 hr room temperature
T1 construct: expressed in transfected cells; membrane fraction
T1 sequence (P30556 1-359): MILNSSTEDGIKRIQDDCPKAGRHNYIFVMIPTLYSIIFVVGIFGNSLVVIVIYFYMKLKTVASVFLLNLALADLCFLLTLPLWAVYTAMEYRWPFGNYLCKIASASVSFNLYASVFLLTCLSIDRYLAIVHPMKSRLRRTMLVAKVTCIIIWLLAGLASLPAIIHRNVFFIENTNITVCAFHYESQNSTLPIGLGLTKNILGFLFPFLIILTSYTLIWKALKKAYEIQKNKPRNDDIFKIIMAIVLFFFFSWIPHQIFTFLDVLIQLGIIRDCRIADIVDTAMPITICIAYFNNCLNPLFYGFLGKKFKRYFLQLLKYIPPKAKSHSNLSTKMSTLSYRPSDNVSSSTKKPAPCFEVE
Summary of the method: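 Competition binding used radiolabelled angiotensin II on stably transfected CHO-K1 membrane fractions in Tris pH 7.4/MgCl2 buffer, optionally containing 0.3 mg/mL fatty acid-free BSA, 1 hr at room temperature. Filtration onto GF/C separated bound tracer, and nonspecific binding was measured with candesartan.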

human PPARγ = target: T2, human PPARγ (Homo sapiens, UniProt P37231); test: PPARγ agonistic activity: luciferase reporter assay in PPARγ:RXRα:4ERPP/CHO-K1 cells; type: cell-based; conditions: CHO-K1, test compound 10^−6 M; luciferase activity of control compound X (1 μM) = 100%, non-administration group = 0%
T2 construct: expressed in transfected cells
T2 sequence (P37231 1-477 isoform P37231-2): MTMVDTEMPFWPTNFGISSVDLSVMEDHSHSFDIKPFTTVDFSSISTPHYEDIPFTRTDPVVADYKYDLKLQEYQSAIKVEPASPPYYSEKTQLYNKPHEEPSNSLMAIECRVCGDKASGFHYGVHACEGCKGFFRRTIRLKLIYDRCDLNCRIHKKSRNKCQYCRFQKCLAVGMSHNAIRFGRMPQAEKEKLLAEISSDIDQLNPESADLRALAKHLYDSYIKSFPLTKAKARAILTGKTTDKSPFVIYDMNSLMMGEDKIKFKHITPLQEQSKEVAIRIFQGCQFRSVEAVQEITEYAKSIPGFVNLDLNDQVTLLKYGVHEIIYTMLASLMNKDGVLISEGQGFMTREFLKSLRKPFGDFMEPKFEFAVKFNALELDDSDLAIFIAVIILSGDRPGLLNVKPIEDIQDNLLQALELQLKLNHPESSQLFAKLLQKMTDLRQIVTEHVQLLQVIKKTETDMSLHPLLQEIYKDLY
T2 sequence (P19793 1-462 partner): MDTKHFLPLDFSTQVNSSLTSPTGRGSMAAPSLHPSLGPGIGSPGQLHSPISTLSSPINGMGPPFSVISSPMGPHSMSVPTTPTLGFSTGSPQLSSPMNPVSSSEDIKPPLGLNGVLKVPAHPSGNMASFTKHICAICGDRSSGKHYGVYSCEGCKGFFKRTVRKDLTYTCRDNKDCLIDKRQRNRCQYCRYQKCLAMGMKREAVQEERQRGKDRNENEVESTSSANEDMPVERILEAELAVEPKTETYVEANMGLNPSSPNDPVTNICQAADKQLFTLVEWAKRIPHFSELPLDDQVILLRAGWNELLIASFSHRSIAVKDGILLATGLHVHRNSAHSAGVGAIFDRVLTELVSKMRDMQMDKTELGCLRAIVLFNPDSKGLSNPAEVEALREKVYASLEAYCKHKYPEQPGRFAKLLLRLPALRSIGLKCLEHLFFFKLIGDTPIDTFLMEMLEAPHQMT
Summary of the method: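 Activity is expressed relative to untreated cells (0%) and 1 μM reference compound X (100%), from luciferase luminescence. Reporter line: PPARγ:RXRα:4ERPP/CHO-K1, exposed to compound for one day at 37 °C in F12 medium containing 0.1% fatty-acid-free BSA.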

SMILES	IC50 (human AT1 receptor) [nM]	activation at 1 µM (human PPARγ) [%]
CCCc1c(Cc2ccc(-c3ccccc3-c3noc(=O)[nH]3)cc2)c(=O)n(C2CCC3(CC2)OCCO3)c2nc(C)nn12 [Example 292, 4-(1,4-dioxaspiro[4.5]dec-8-yl)-2-methyl-6-{[2′-(5-oxo-4,5-dihydro-1,2,4-oxadiazol-3-yl)biphenyl-4-yl]methyl}-7-propyl[1,2,4]triazolo[1,5-a]pyrimidin-5(4H)-one]	1.9	46
CCCc1c(Cc2ccc(-c3ccccc3-c3noc(=O)[nH]3)cc2)c(=O)n(C2CCC3(CC2)O[C@H]2COC[C@H]2O3)c2ncnn12 (some centres unmarked) [Example 293, 6-{[2′-(5-oxo-4,5-dihydro-1,2,4-oxadiazol-3-yl)biphenyl-4-yl]methyl}-7-propyl-4-(tetrahydrospiro[cyclohexane-1,2′-furo[3,4-d][1,3]dioxol]-4-yl)[1,2,4]triazolo[1,5-a]pyrimidin-5(4H)-one]	2.3	28
CCCc1c(Cc2ccc(-c3ccccc3-c3noc(=O)[nH]3)cc2)c(=O)n(C2CCC3(CC2)OCC(CO)O3)c2ncnn12 (centres unmarked) [Example 294, 4-[2-(hydroxymethyl)-1,4-dioxaspiro[4.5]dec-8-yl]-6-{[2′-(5-oxo-4,5-dihydro-1,2,4-oxadiazol-3-yl)biphenyl-4-yl]methyl}-7-propyl[1,2,4]triazolo[1,5-a]pyrimidin-5(4H)-one]	2.1	31
CCCc1c(Cc2ccc(-c3ccccc3-c3noc(=O)[nH]3)cc2)c(=O)n([C@H]2CC[C@H](OCC(C)(C)O)CC2)c2nc(C)nn12 [Example 296, 4-[trans-4-(2-hydroxy-2-methylpropoxy)cyclohexyl]-2-methyl-6-{[2′-(5-oxo-4,5-dihydro-1,2,4-oxadiazol-3-yl)biphenyl-4-yl]methyl}-7-propyl[1,2,4]triazolo[1,5-a]pyrimidin-5(4H)-one]	1.7	29
CCCc1c(Cc2ccc(-c3ccccc3-c3noc(=O)[nH]3)cc2)c(=O)n([C@H]2CC[C@](O)(COC)CC2)c2ncnn12 [Example 297, 4-[cis-4-hydroxy-4-(methoxymethyl)cyclohexyl]-6-{[2′-(5-oxo-4,5-dihydro-1,2,4-oxadiazol-3-yl)biphenyl-4-yl]methyl}-7-propyl[1,2,4]triazolo[1,5-a]pyrimidin-5(4H)-one]	2.8	53
CCCc1c(Cc2ccc(-c3ccccc3-c3noc(=O)[nH]3)cc2)c(=O)n([C@H]2CC[C@H](OC(C)C(C)O)CC2)c2ncnn12 (stereo partly drawn) [Example 299, 4-[trans-4-(2-hydroxy-1-methylpropoxy)cyclohexyl]-6-{[2′-(5-oxo-4,5-dihydro-1,2,4-oxadiazol-3-yl)biphenyl-4-yl]methyl}-7-propyl[1,2,4]triazolo[1,5-a]pyrimidin-5(4H)-one]	1.8	19
CCCc1c(Cc2ccc(-c3ccccc3-c3noc(=O)[nH]3)cc2)c(=O)n([C@H]2CC[C@H](OC(C)C(C)(C)O)CC2)c2ncnn12 (stereo partly drawn) [Example 300, 4-[trans-4-(2-hydroxy-1,2-dimethylpropoxy)cyclohexyl]-6-{[2′-(5-oxo-4,5-dihydro-1,2,4-oxadiazol-3-yl)biphenyl-4-yl]methyl}-7-propyl[1,2,4]triazolo[1,5-a]pyrimidin-5(4H)-one]	1.8	16
CCCc1c(Cc2ccc(-c3ccccc3-c3noc(=O)[nH]3)cc2)c(=O)n([C@H]2CC[C@H](OCC(O)C(F)(F)F)CC2)c2ncnn12 (stereo partly drawn) [Example 325, 6-{[2′-(5-oxo-4,5-dihydro-1,2,4-oxadiazol-3-yl)biphenyl-4-yl]methyl}-7-propyl-4-[trans-4-(3,3,3-trifluoro-2-hydroxypropoxy)cyclohexyl][1,2,4]triazolo[1,5-a]pyrimidin-5(4H)-one]	2	31
CCCc1c(Cc2ccc(-c3ccccc3-c3noc(=O)[nH]3)cc2)c(=O)n([C@H]2CC[C@H](OCC(O)CC)CC2)c2ncnn12 (stereo partly drawn) [Example 326, 4-[trans-4-(2-hydroxybutoxy)cyclohexyl]-6-{[2′-(5-oxo-4,5-dihydro-1,2,4-oxadiazol-3-yl)biphenyl-4-yl]methyl}-7-propyl[1,2,4]triazolo[1,5-a]pyrimidin-5(4H)-one]	1.8	29
C=CC(O)CO[C@H]1CC[C@H](n2c(=O)c(Cc3ccc(-c4ccccc4-c4noc(=O)[nH]4)cc3)c(CCC)n3ncnc32)CC1 (stereo partly drawn) [Example 331, 4-{trans-4-[(2-hydroxybut-3-en-1-yl)oxy]cyclohexyl}-6-{[2′-(5-oxo-4,5-dihydro-1,2,4-oxadiazol-3-yl)biphenyl-4-yl]methyl}-7-propyl[1,2,4]triazolo[1,5-a]pyrimidin-5(4H)-one]	2	33
CCCc1c(Cc2ccc(-c3ccccc3-c3noc(=O)[nH]3)cc2)c(=O)n([C@H]2CC[C@H](OCC(C)(O)C(F)(F)F)CC2)c2ncnn12 (stereo partly drawn) [Example 335, 6-{[2′-(5-oxo-4,5-dihydro-1,2,4-oxadiazol-3-yl)biphenyl-4-yl]methyl}-7-propyl-4-[trans-4-(3,3,3-trifluoro-2-hydroxy-2-methylpropoxy)cyclohexyl][1,2,4]triazolo[1,5-a]pyrimidin-5(4H)-one]	1.9	19
CCCc1c(Cc2ccc(-c3ccccc3-c3noc(=O)[nH]3)cc2)c(=O)n([C@H]2CC[C@H](OCC(C)(O)CF)CC2)c2ncnn12 (stereo partly drawn) [Example 337, 4-[trans-4-(3-fluoro-2-hydroxy-2-methylpropoxy)cyclohexyl]-6-{[2′-(5-oxo-4,5-dihydro-1,2,4-oxadiazol-3-yl)biphenyl-4-yl]methyl}-7-propyl[1,2,4]triazolo[1,5-a]pyrimidin-5(4H)-one]	1.9	24
CCCc1c(Cc2ccc(-c3ccccc3-c3noc(=O)[nH]3)cc2)c(=O)n([C@H]2CC[C@H](OCC3(O)CCC3)CC2)c2ncnn12 [Example 338, 4-{trans-4-[(1-hydroxycyclobutyl)methoxy]cyclohexyl}-6-{[2′-(5-oxo-4,5-dihydro-1,2,4-oxadiazol-3-yl)biphenyl-4-yl]methyl}-7-propyl[1,2,4]triazolo[1,5-a]pyrimidin-5(4H)-one]	1.6	36
CCCc1c(Cc2ccc(-c3ccccc3-c3noc(=O)[nH]3)cc2)c(=O)n([C@H]2CC[C@H](OCC(O)(CF)CF)CC2)c2ncnn12 [Example 339, 4-{trans-4-[3-fluoro-2-(fluoromethyl)-2-hydroxypropoxy]cyclohexyl}-6-{[2′-(5-oxo-4,5-dihydro-1,2,4-oxadiazol-3-yl)biphenyl-4-yl]methyl}-7-propyl[1,2,4]triazolo[1,5-a]pyrimidin-5(4H)-one]	1.4	27
CCCc1c(Cc2ccc(-c3ccccc3-c3noc(=O)[nH]3)cc2)c(=O)n([C@H]2CC[C@H](OCC(C)(O)CC)CC2)c2ncnn12 (stereo partly drawn) [Example 345, 4-[trans-4-(2-hydroxy-2-methylbutoxy)cyclohexyl]-6-{[2′-(5-oxo-4,5-dihydro-1,2,4-oxadiazol-3-yl)biphenyl-4-yl]methyl}-7-propyl[1,2,4]triazolo[1,5-a]pyrimidin-5(4H)-one]	2.1	18
CCCc1c(Cc2ccc(-c3ccccc3-c3noc(=O)[nH]3)cc2)c(=O)n([C@H]2CC[C@H](OC(CC)C(C)(C)O)CC2)c2ncnn12 (stereo partly drawn) [Example 348, 4-[trans-4-(1-ethyl-2-hydroxy-2-methylpropoxy)cyclohexyl]-6-{[2′-(5-oxo-4,5-dihydro-1,2,4-oxadiazol-3-yl)biphenyl-4-yl]methyl}-7-propyl[1,2,4]triazolo[1,5-a]pyrimidin-5(4H)-one]	1.9	19

Reference: patent US8283353B2, “Fused ring compound and use thereof” (Takeda Pharmaceutical Company Limited, priority 2009, dated 2012)
